From patent US9115143B2, “Substituted indole derivatives as gamma secretase modulators” (Janssen Pharmaceuticals, Inc., priority 2011, dated 2015)

Experiments:
Aβ42 = test: Screening for γ-secretase-modulating activity: Aβ42 in supernatant of SKNBE2 cells carrying hAPP 695 wild type (Alphalisa); format: cell-based, human; conditions: overnight incubation, Alphalisa on supernatant
Method in brief: (§1)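 Secreted Aβ42 (C-terminal/N-terminal antibody pair) and Aβtotal (N-terminal/mid-region pair) were quantified by AlphaLISA after overnight compound exposure of wild-type hAPP 695 SKNBE2 cells at 37 °C. Values expressed relative to compound-free maximum, with IC50 from nonlinear 4-parameter regression.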

Aβtotal = test: Screening for γ-secretase-modulating activity: Aβtotal in supernatant of SKNBE2 cells carrying hAPP 695 wild type (Alphalisa); format: cell-based, human; conditions: Homo sapiens, SKNBE2, SKNBE2 human neuroblastoma cells carrying hAPP 695 wild type; overnight incubation; Alphalisa on supernatant
Method in brief: as §1

[1] = Homo sapiens, SKNBE2, SKNBE2 human neuroblastoma cells carrying hAPP 695 wild type
[2] = SKNBE2 human neuroblastoma cells carrying hAPP 695 wild type

| Compound | IC50 (Aβ42; [1]) | IC50 (Aβtotal) | IC50 (Aβ42; [2]) |
| --- | --- | --- | --- |
| Cc1cc(F)ccc1C1OCCn2nc(-c3cc4cc(-c5cnn(C)c5)ccc4[nH]3)nc21 (stereo not drawn) [Compound 107, 8-(4-fluoro-2-methylphenyl)-5,6-dihydro-2-[5-(1-methyl-1H-pyrazol-4-yl)-1H-indol-2-yl]-8H-[1,2,4]triazolo[5,1-c][1,4]oxazine] | 148 nM | > 10000 nM |  |
| COCc1ccccc1C1OCCn2cc(-c3cc4c(OC)c(C#N)ccc4[nH]3)nc21 (stereo not drawn) [Compound 120, 2-[5,6-dihydro-8-[2-(methoxymethyl)phenyl]-8H-imidazo[2,1-c][1,4]oxazin-2-yl]-4-methoxy-1H-indole-5-carbonitrile] |  | > 10000 nM | 123 nM |
| COc1c(C#N)ccc2[nH]c(-c3nc4n(n3)CCOC4c3cc(C(F)(F)F)ccc3F)cc12 (stereo not drawn) [Compound 121, 2-[8-[2-fluoro-5-(trifluoromethyl)phenyl]-5,6-dihydro-8H-[1,2,4]triazolo[5,1-c][1,4]oxazin-2-yl]-4-methoxy-1H-indole-5-carbonitrile] | 110 nM | > 10000 nM |  |
| COc1c(C#N)ccc2[nH]c(-c3nc4n(n3)CCOC4c3c(F)cccc3C(F)(F)F)cc12 (stereo not drawn) [Compound 125, 2-[8-[2-fluoro-6-(trifluoromethyl)phenyl]-5,6-dihydro-8H-[1,2,4]triazolo[5,1-c][1,4]oxazin-2-yl]-4-methoxy-1H-indole-5-carbonitrile] |  | > 10000 nM | 71 nM |
| COc1c(C#N)ccc2[nH]c(-c3nc4n(n3)CCOC4c3cccc(F)c3C)cc12 (stereo not drawn) [Compound 127, 2-[8-(3-fluoro-2-methylphenyl)-5,6-dihydro-8H-[1,2,4]triazolo[5,1-c][1,4]oxazin-2-yl]-4-methoxy-1H-indole-5-carbonitrile] |  | > 10000 nM | 33 nM |

Second part, the compound after the results:

| IC50 (Aβ42; [1]) | IC50 (Aβtotal) | IC50 (Aβ42; [2]) | Compound |
| --- | --- | --- | --- |
| 44 nM | > 10000 nM |  | Cc1cn(-c2ccc3[nH]c(-c4nc5n(n4)CCOC5c4ccc(F)c(F)c4C)cc3c2)cn1 (stereo not drawn) [Compound 104, 8-(3,4-difluoro-2-methylphenyl)-5,6-dihydro-2-[5-(4-methyl-1H-imidazol-1-yl)-1H-indol-2-yl]-8H-[1,2,4]triazolo[5,1-c][1,4]oxazine] |
| 40 nM | > 10000 nM |  | Cc1cc(-c2ccc3[nH]c(-c4nc5n(n4)CCOC5c4ccc(F)cc4C)cc3c2)ccn1 (stereo not drawn) [Compound 108, 8-(4-fluoro-2-methylphenyl)-5,6-dihydro-2-[5-(2-methyl-4-pyridinyl)-1H-indol-2-yl]-8H-[1,2,4]triazolo[5,1-c][1,4]oxazine] |
| 55 nM | > 10000 nM |  | COc1c(C#N)ccc2[nH]c(-c3cn4c(n3)C(c3c(F)cccc3Cl)OCC4)cc12 (stereo not drawn) [Compound 119, 2-[8-(2-chloro-6-fluorophenyl)-5,6-dihydro-8H-imidazo[2,1-c][1,4]oxazin-2-yl]-4-methoxy-1H-indole-5-carbonitrile] |
|  | > 10000 nM | 47 nM | COc1c(C#N)ccc2[nH]c(-c3cn4c(n3)C(c3c(C)cccc3F)OCC4)cc12 (stereo not drawn) [Compound 124, 2-[8-(2-fluoro-6-methylphenyl)-5,6-dihydro-8H-imidazo[2,1-c][1,4]oxazin-2-yl]-4-methoxy-1H-indole-5-carbonitrile] |
|  | > 10000 nM | 55 nM | COc1c(C#N)ccc2[nH]c(-c3cn4c(n3)C(c3c(F)cccc3C(F)(F)F)OCC4)cc12 (stereo not drawn) [Compound 126, 2-[8-[2-fluoro-6-(trifluoromethyl)phenyl]-5,6-dihydro-8H-imidazo[2,1-c][1,4]oxazin-2-yl]-4-methoxy-1H-indole-5-carbonitrile] |
|  | > 10000 nM | 60 nM | COc1c(C#N)ccc2[nH]c(-c3cn4c(n3)C(c3cc(C(F)(F)F)ccc3F)OCC4)cc12 (stereo not drawn) [Compound 128, 2-[8-[2-fluoro-5-(trifluoromethyl)phenyl]-5,6-dihydro-8H-imidazo[2,1-c][1,4]oxazin-2-yl]-4-methoxy-1H-indole-5-carbonitrile] |
|  | > 10000 nM | 46 nM | COc1c(C#N)ccc2[nH]c(-c3nc4n(n3)CCOC4c3c(C)cccc3F)cc12 (stereo not drawn) [Compound 129, 2-[8-(2-fluoro-6-methylphenyl)-5,6-dihydro-8H-[1,2,4]triazolo[5,1-c][1,4]oxazin-2-yl]-4-methoxy-1H-indole-5-carbonitrile] |
